For the assay, the system named is Human platelet aggregation induced by ADP (platelet rich plasma). The assay is described as follows: Inhibition of human platelet aggregation induced by ADP. It counts as cell-based. The note with it: human PRP; aggregation induced by ADP at final concentration of 2.5 μM; 37° C. On the procedure: Inhibition of Human Platelet Aggregation Induced by ADP
Human blood was obtained from healthy volunteers and mixed with 1/10 volume of 3.8% sodium citrate, pH 7.4. The citrate blood was centrifuged at 150×g for 10 minutes and the platelet rich plasma (PRP) was removed. The remaining blood was centrifuged for a further 10 minutes at 1500×g to prepare the platelet poor plasma (PPP), which was used as a reference for platelet aggregation. Aggregation studies were carried out using HEMATRACER 801 (NBS, Japan), a 8 channel aggregometer. The test compound solution (25 μl) and the PRP (225 μl) were mixed and stirred at 1000 rpm at 37° C. for 2 minutes. Aggregation was induced by ADP solution at the final concentration of 2.5 μM.

Structures are written as SMILES. Where only a bound is given, the exact number is not on record here.

The compound `CCOC(=O)COc1cccc(CN2C[C@H](O)C[C@@H]2c2nc(-c3ccccc3)c(-c3ccccc3)o2)c1` [(1)] displayed a half-inhibitory concentration (IC50) below 100 nM.

The values are drawn from patent publication US6660759B1, “4.5-diaryloxazole compounds with prostaglandin I2 (PGI2) agonistic activity” (Fujisawa Pharmaceutical Co. Ltd., priority 1999, dated 2003).
